Drawing on ChEMBL document CHEMBL1909046, “DrugMatrix in vitro pharmacology data”, this text covers IC50 and Ki for 17 molecules.

One experiment has as its target Adenosine receptor A2a (Homo sapiens, UniProt P29274). Put plainly: DRUGMATRIX: Adenosine A2A radioligand binding (ligand: […]). Format: cell membranes, HEK293, Membrane. Particulars: hek293; Not Active = under 50% inhibition at 10 µM.
Experiment [1] concerns the target T1, 3-hydroxy-3-methylglutaryl-coenzyme A reductase (Homo sapiens, UniProt P04035).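 Note: enzyme inhibition assay of HMG-CoA reductase using radiolabeled [14C]HMG-CoA as substrate; in other assays of this panel Not Active means under 50% inhibition at 10 µM.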
T1 sequence (P04035 whole entry): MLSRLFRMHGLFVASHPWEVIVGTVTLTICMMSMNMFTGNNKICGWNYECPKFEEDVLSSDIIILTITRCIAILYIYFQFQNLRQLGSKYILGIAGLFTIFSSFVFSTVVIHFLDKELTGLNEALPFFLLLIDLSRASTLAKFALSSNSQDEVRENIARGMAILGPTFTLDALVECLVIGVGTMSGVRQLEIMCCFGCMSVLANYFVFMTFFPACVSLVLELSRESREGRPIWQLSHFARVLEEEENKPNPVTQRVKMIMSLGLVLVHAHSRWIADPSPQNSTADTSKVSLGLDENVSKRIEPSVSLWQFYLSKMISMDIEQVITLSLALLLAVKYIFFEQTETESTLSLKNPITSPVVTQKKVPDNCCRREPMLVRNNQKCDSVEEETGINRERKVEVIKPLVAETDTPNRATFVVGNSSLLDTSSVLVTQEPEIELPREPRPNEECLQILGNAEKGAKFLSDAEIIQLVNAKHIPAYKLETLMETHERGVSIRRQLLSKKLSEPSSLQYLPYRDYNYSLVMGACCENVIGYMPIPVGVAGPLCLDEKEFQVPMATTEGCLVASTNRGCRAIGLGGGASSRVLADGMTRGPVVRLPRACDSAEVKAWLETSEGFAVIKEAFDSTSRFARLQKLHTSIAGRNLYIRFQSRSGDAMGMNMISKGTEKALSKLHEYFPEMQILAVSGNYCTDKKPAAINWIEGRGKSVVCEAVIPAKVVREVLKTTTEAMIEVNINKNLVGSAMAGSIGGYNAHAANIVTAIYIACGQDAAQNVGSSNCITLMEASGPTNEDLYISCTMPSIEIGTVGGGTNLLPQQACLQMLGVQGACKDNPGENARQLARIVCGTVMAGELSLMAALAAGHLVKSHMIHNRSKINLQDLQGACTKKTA
The arrangement: species or system Escherichia coli.

The target in experiment [2] is T2, Angiotensin-converting enzyme (Oryctolagus cuniculus, UniProt P12822).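 Note: enzymatic inhibition of angiotensin-converting enzyme measured with FAPGG as the substrate; in other assays of this panel Not Active means under 50% inhibition at 10 µM.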
T2 sequence (P12822 whole entry): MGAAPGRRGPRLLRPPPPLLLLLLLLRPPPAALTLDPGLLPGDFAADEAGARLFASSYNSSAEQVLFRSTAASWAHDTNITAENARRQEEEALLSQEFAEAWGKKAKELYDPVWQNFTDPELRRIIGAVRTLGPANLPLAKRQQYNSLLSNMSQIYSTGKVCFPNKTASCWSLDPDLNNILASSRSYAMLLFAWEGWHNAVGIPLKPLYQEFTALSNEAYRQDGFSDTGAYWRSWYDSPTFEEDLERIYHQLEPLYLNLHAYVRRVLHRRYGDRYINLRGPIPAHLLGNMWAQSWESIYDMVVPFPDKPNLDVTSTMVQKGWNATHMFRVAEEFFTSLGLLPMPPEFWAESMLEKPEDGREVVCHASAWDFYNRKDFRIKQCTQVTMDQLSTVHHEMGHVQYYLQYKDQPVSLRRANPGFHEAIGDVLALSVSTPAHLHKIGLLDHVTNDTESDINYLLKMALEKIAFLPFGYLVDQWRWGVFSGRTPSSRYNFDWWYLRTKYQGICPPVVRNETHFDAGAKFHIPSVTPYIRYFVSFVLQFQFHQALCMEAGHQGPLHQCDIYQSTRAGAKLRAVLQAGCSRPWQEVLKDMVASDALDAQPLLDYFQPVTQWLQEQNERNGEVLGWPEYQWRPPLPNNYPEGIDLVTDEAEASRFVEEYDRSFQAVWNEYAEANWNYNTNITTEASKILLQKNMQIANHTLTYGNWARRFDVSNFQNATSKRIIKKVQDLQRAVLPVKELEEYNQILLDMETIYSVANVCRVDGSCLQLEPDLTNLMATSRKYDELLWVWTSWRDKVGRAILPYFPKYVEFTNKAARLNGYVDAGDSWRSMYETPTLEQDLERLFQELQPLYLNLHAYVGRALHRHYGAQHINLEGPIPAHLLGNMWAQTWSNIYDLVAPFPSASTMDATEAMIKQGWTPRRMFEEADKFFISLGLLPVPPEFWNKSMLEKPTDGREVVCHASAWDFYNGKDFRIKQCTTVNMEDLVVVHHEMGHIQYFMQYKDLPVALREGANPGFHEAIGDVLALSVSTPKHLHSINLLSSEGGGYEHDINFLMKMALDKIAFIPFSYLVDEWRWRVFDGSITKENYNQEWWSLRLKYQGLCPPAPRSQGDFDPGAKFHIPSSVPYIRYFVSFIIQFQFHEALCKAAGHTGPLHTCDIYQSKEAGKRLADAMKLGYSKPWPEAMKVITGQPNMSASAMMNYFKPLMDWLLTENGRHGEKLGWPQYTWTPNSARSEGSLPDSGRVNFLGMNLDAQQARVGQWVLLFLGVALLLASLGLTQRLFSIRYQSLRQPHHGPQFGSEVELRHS
The class given is tissue-based, Lung.

Experiment [3] addresses Sodium-dependent noradrenaline transporter (Homo sapiens, UniProt P23975). Put plainly: DRUGMATRIX: Norepinephrine Transporter radioligand binding (ligand: [125I] RTI-55). The class given is cell membranes, MDCK, Membrane. As to conditions: Not Active = under 50% inhibition at 10 µM.
The target in the next experiment is T3, B2 bradykinin receptor (Homo sapiens, UniProt P30411). Note: in other assays of this panel Not Active means under 50% inhibition at 10 µM.
T3 sequence (P30411 whole entry): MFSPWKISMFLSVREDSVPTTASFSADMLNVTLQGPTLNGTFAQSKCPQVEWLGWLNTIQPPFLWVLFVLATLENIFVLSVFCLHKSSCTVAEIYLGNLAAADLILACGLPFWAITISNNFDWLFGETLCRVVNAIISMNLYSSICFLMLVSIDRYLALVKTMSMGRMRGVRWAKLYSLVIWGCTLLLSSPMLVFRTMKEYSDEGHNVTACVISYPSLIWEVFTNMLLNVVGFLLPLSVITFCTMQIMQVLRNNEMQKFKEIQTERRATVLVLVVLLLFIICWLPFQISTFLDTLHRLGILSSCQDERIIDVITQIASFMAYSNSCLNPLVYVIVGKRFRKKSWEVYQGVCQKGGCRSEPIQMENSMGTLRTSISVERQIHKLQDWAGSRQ
Format: cell membranes, Membrane. As to conditions: chem-1.

The next experiment deals with Insulin receptor (Rattus norvegicus, UniProt P15127). Format: cell membranes, Wistar, Liver, Membrane.
Sequence of Insulin receptor (P15127 27-759 limits assumed): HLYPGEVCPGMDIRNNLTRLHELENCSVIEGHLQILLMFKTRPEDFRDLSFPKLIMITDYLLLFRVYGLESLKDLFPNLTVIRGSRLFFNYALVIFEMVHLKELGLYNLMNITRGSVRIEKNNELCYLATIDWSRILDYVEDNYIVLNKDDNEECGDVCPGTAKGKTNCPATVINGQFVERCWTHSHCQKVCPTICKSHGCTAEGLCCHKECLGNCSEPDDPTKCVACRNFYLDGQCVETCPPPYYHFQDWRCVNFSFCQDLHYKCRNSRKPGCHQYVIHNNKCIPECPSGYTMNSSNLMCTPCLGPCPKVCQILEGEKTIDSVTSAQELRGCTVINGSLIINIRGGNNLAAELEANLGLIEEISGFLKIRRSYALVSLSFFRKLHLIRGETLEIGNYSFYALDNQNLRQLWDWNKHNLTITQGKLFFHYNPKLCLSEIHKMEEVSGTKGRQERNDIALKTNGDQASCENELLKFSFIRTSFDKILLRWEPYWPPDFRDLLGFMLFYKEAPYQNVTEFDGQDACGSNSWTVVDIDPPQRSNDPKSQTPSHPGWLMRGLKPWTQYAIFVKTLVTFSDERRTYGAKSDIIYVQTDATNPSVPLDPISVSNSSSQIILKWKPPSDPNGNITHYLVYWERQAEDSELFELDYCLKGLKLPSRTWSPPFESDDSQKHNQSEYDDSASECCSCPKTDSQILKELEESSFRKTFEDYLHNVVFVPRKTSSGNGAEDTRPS
Sequence of Insulin receptor (P15127 764-1383 limits assumed): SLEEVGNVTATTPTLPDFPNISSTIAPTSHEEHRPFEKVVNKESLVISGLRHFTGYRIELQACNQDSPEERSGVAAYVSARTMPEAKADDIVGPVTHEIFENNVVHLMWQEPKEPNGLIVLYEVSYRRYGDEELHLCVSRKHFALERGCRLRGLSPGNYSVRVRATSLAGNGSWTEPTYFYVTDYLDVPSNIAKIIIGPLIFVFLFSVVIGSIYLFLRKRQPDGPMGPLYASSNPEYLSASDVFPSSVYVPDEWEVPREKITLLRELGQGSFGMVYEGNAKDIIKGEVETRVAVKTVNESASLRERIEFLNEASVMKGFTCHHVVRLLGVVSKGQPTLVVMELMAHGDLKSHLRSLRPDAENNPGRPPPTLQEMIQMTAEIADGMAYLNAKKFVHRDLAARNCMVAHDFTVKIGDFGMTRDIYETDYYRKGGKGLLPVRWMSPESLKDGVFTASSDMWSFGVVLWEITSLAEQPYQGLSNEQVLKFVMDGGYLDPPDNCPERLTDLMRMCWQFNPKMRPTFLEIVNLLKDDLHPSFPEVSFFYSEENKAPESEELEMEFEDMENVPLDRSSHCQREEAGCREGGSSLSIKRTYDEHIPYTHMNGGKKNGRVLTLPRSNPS

Sequence of Sodium-dependent noradrenaline transporter (P23975 whole entry): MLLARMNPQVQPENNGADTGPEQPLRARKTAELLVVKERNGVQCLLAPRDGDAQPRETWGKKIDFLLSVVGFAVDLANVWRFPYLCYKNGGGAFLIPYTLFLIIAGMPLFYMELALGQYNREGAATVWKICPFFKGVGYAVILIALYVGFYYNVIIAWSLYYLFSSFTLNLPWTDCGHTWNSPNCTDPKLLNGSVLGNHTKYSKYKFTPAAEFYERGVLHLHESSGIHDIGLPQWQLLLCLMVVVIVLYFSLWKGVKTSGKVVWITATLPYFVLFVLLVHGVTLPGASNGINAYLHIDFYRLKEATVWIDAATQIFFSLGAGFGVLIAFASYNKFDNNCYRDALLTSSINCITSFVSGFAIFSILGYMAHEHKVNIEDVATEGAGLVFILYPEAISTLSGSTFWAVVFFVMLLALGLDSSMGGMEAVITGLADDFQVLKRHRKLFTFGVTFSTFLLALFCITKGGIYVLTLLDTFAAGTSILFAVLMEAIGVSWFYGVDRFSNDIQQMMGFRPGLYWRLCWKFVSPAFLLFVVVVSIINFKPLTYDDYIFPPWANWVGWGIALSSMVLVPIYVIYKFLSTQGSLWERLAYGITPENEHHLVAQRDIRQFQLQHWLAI
Sequence of Adenosine receptor A2a (P29274 whole entry): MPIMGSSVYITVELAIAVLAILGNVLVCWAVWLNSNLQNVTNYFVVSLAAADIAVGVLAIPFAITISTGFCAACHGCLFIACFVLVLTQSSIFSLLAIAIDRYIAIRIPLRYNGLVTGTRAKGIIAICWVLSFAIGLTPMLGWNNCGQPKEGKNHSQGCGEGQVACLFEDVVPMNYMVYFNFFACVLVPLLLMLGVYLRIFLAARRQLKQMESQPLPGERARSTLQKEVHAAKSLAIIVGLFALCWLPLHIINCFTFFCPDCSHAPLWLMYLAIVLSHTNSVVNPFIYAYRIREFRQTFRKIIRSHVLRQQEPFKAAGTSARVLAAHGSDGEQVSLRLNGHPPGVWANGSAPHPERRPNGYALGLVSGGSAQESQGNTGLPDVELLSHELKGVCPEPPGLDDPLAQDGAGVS

Turning to `[N-]=[N+]=CC(=O)OC[C@H](N)C(=O)O` [AZASERINE], the IC50 result (at Adenosine receptor A2a; in experiment [1]; in experiment [2]; in experiment [3] (mdck); at B2 bradykinin receptor; on Insulin receptor) was “Not Active” throughout.

Take `CC[C@H]1OC(=O)[C@H](C)[C@@H](O[C@H]2C[C@@](C)(OC)[C@@H](O)[C@H](C)O2)[C@H](C)[C@@H](O[C@@H]2O[C@H](C)C[C@H](N(C)C)[C@H]2O)[C@](C)(O)C[C@@H](C)CN(C)[C@H](C)[C@@H](O)[C@]1(C)O` [AZITHROMYCIN]: the IC50 entry (at Adenosine receptor A2a; in experiment [1]; in experiment [2]; in experiment [3] (mdck); on B2 bradykinin receptor; on Insulin receptor) was “Not Active” in each case.

As to `CC(C)(C)c1ccc(S(=O)(=O)/C=C/C#N)cc1` [BAY-11-7085], the IC50 result (at Adenosine receptor A2a; in experiment [1]; in experiment [2]; in experiment [3] (mdck); on B2 bradykinin receptor; against Insulin receptor) was “Not Active” in each case.

Regarding `CCc1oc2ccccc2c1C(=O)c1cc(Br)c(O)c(Br)c1` [BENZBROMARONE], the IC50 entry (at Adenosine receptor A2a; in experiment [1]; in experiment [2]; in experiment [3] (mdck); against B2 bradykinin receptor; against Insulin receptor) was “Not Active” throughout.

As to `O=c1cc(-c2ccccc2)oc2ccc3ccccc3c12` [BETA-NAPHTHOFLAVONE], the IC50 result (at Adenosine receptor A2a; in experiment [1]; in experiment [2]; in experiment [3] (mdck); on B2 bradykinin receptor; on Insulin receptor) was “Not Active” throughout.

As for `CC(C)C[C@H]1C(=O)N2CCC[C@H]2[C@]2(O)O[C@](NC(=O)[C@@H]3C=C4c5cccc6[nH]c(Br)c(c56)C[C@H]4N(C)C3)(C(C)C)C(=O)N12` [BROMOCRIPTINE], the IC50 entry (on Adenosine receptor A2a; in experiment [1]; in experiment [2]; in experiment [3] (mdck); against B2 bradykinin receptor; against Insulin receptor) was “Not Active” each time.

Regarding `CS(=O)(=O)OCCCCOS(C)(=O)=O` [BUSULFAN], the IC50 result (at Adenosine receptor A2a; in experiment [1]; in experiment [2]; in experiment [3] (mdck); on B2 bradykinin receptor; on Insulin receptor) was “Not Active” each time.

For `O=C(/C=C/c1ccc(O)c(O)c1)OCCc1ccccc1` [CAFFEIC ACID PHENETHYL ESTER], the IC50 entry at Adenosine receptor A2a was “Not Active”; in experiment [1], “Not Active”; in experiment [2], “Not Active”; in experiment [3] (read-out: IC50) it was 3.79 µM; on B2 bradykinin receptor it was “Not Active”; against Insulin receptor it was “Not Active”. For the same molecule, the Ki in experiment [3] (read-out: Ki) came to 3.76 µM.

For `COc1cc(CNC(=O)CCCC/C=C/C(C)C)ccc1O` [CAPSAICIN], the IC50 result (on Adenosine receptor A2a; in experiment [1]; in experiment [2]; in experiment [3] (mdck); against B2 bradykinin receptor; at Insulin receptor) was “Not Active” in each case.

With `NC(=O)N1c2ccccc2C=Cc2ccccc21` [CARBAMAZEPINE], the IC50 result (at Adenosine receptor A2a; in experiment [1]; in experiment [2]; in experiment [3] (mdck); at B2 bradykinin receptor; on Insulin receptor) was “Not Active” in each case.

For the molecule `CCOC(=O)n1ccn(C)c1=S` [CARBIMAZOLE], the IC50 entry (on Adenosine receptor A2a; in experiment [1]; in experiment [2]; in experiment [3] (mdck); on B2 bradykinin receptor; at Insulin receptor) was “Not Active” throughout.

Regarding `Oc1ccccc1O` [CATECHOL], the IC50 result (at Adenosine receptor A2a; in experiment [1]; in experiment [2]; in experiment [3] (mdck); against B2 bradykinin receptor; at Insulin receptor) was “Not Active” each time.

For the molecule `CO[C@@]1(NC(=O)CSCC#N)C(=O)N2C(C(=O)O)=C(CSc3nnnn3C)CS[C@@H]21` [CEFMETAZOLE], the IC50 entry (on Adenosine receptor A2a; in experiment [1]; in experiment [2]; in experiment [3] (mdck); on B2 bradykinin receptor; at Insulin receptor) was “Not Active” in each case.

Turning to `CN(C(=O)CCCOc1ccc2[nH]c(=O)ccc2c1)C1CCCCC1` [CILOSTAMIDE], the IC50 result (on Adenosine receptor A2a; in experiment [1]; in experiment [2]; in experiment [3] (mdck); against B2 bradykinin receptor; on Insulin receptor) was “Not Active” throughout.

Regarding `CC(C)(Oc1ccc(C2CC2(Cl)Cl)cc1)C(=O)O` (stereo not drawn) [CIPROFIBRATE], the IC50 entry (on Adenosine receptor A2a; in experiment [1]; in experiment [2]; in experiment [3] (mdck); against B2 bradykinin receptor; at Insulin receptor) was “Not Active” throughout.

For the molecule `Nc1nc(Cl)nc2c1ncn2[C@H]1C[C@H](O)[C@@H](CO)O1` [CLADRIBINE], the IC50 entry (on Adenosine receptor A2a; in experiment [1]; in experiment [2]; in experiment [3] (mdck); against B2 bradykinin receptor; against Insulin receptor) was “Not Active” each time.

With `CC[C@H]1OC(=O)[C@H](C)[C@@H](O[C@H]2C[C@@](C)(OC)[C@@H](O)[C@H](C)O2)[C@H](C)[C@@H](O[C@@H]2O[C@H](C)C[C@H](N(C)C)[C@H]2O)[C@](C)(OC)C[C@@H](C)C(=O)[C@H](C)[C@@H](O)[C@]1(C)O` [CLARITHROMYCIN], the IC50 entry (on Adenosine receptor A2a; in experiment [1]; in experiment [2]; in experiment [3] (mdck); against B2 bradykinin receptor; against Insulin receptor) was “Not Active” in each case.
